Results reported in patent US8791132B2, “Compounds and methods for treatment of hypertension” (Medivation Technologies, Inc., priority 2011, dated 2014).
Several values for one entry are separate records, joined by “and”; a condition that tells them apart may be missing. Identical values can stand only once.

Key:
[1] = target: T1, rat adrenergic α1B receptor (Rattus norvegicus, UniProt P15823); test: Radioligand binding, adrenergic α1B ([3H]Prazosin); conditions: 0.1 μM compound; for inhibition at 0.1 µM: read-out: Percentage inhibition of ligand binding, Adrenergic α1B
T1 construct: rat adrenergic α1B receptor obtained from Wistar Rat liver; from tissue; host or cells: Wistar rat liver
T1 sequence (P15823 1-515): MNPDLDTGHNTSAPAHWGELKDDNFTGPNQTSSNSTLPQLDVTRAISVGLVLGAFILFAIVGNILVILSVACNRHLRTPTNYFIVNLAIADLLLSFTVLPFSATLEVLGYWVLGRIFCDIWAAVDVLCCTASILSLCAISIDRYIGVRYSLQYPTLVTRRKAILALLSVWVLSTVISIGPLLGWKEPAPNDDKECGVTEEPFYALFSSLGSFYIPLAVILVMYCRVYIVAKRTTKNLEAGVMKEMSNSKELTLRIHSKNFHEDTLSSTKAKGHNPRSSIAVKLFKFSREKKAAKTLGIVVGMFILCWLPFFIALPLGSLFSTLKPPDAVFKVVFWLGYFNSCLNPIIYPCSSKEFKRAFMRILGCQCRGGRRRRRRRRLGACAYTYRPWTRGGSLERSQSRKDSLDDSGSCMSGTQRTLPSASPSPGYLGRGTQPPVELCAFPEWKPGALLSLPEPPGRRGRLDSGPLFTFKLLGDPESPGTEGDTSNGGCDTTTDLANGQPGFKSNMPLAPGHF
In short: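 Rat α1B receptor from Wistar rat liver was incubated with 0.25 nM [3H]prazosin for 60 min at 25 °C in 50 mM Tris-HCl, pH 7.4, 0.5 mM EDTA. Non-specific binding was defined with 10 μM phentolamine. Bound radioligand was measured by filtration and counting, reported as percent inhibition of specific binding.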

[2] = target: T2, human recombinant adrenergic α2B receptor (Homo sapiens, UniProt P18089); test: Radioligand binding, adrenergic α2B ([3H]Rauwolscine); conditions: 0.1 μM compound; for inhibition at 0.1 µM: read-out: Percentage inhibition of ligand binding, Adrenergic α2B
T2 construct: expressed in transfected cells; host or cells: CHO-K1
T2 sequence (P18089 1-450): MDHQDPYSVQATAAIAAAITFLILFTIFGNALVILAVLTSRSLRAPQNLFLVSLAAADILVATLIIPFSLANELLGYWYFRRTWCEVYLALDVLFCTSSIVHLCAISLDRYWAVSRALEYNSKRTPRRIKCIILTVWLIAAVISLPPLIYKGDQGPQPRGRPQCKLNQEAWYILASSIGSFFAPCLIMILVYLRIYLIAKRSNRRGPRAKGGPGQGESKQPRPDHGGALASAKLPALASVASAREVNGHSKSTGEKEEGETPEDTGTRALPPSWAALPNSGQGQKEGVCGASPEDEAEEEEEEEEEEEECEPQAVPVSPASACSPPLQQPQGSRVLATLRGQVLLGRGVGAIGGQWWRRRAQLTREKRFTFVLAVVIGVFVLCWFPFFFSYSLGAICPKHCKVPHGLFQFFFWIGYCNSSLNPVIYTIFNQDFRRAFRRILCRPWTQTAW
In short: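 Membranes from CHO-K1 cells expressing human recombinant α2B, in 50 mM Tris-HCl pH 7.4, 12.5 mM MgCl2, 1 mM EDTA, 0.2% BSA, incubated with compound and 2.5 nM [3H]Rauwolscine, 60 min, 25 °C.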

[3] = target: T3, human recombinant adrenergic α2A receptor (Homo sapiens, UniProt P08913); test: Radioligand binding, adrenergic α2A ([3H]MK-912); conditions: for Percentage inhibition of ligand binding, Adrenergic α2A / inhibition at 0.1 µM: 0.1 μM compound; for Percentage inhibition of ligand binding, Adrenergic α2A: 0.1 µM
T3 construct: expressed in transfected cells; host or cells: insect Sf9 cells
T3 sequence (P08913 1-465): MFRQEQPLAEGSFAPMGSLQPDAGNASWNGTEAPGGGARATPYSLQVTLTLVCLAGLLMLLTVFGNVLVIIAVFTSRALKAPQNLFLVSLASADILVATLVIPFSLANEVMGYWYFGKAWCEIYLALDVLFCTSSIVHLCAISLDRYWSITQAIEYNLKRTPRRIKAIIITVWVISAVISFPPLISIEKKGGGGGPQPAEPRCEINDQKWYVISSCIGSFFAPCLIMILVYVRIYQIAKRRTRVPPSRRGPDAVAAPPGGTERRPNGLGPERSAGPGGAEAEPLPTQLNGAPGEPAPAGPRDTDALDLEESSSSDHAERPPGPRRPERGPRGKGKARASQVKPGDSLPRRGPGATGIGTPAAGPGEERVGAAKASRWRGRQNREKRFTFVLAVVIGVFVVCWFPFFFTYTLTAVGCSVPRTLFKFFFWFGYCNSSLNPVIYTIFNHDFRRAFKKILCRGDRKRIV
In short: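 Displacement of 1 nM [3H]MK-912 from receptor produced in insect Sf9 cells was measured after 60 min at 25 °C. Readout: percent inhibition of specific binding.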

[4] = target: T4, human recombinant adrenergic α1D receptor (Homo sapiens, UniProt P25100); test: Radioligand binding, adrenergic α1D ([3H]Prazosin); conditions: 0.1 μM compound; for inhibition at 0.1 µM: read-out: Percentage inhibition of ligand binding, Adrenergic α1D
T4 construct: expressed in transfected cells; host or cells: HEK-293
T4 sequence (P25100 1-572): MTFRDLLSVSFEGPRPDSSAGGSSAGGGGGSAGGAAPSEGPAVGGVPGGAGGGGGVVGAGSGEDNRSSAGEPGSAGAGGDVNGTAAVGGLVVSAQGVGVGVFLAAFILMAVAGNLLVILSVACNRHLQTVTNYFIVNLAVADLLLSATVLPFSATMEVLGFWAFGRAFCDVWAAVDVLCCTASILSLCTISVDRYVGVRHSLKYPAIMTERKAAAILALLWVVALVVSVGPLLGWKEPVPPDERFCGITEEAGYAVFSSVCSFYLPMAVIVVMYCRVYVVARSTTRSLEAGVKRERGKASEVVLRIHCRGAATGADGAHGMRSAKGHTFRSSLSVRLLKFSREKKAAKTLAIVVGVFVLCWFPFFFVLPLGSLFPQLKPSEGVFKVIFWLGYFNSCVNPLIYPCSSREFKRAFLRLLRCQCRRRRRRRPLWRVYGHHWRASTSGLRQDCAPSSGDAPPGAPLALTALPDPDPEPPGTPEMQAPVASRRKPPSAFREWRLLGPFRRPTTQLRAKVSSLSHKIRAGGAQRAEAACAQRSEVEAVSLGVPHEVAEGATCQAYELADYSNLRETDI
Method: Compounds were incubated with 0.6 nM [3H]Prazosin for 60 min at 25° C. Non-specific binding was estimated in the presence of 10 μM phentolamine. Receptor proteins were filtered and washed, the filters were then counted to determine [3H]Prazosin specifically bound. […] Biochemical assay results are presented as the percent inhibition of specific binding in Table B1.

[5] = read-out: Percentage inhibition of ligand binding, Adrenergic α2A

| Structure (SMILES) | inhibition at 0.1 µM [1] [%] | inhibition at 0.1 µM [2] [%] | Ki [3] [nM] | inhibition at 0.03 µM ([3]; 0.03 μM compound, read-out: Percentage inhibition of ligand binding, Adrenergic α2A) [%] | Percentage inhibition of ligand binding, Adrenergic α2A [3] [%] | inhibition at 0.1 µM [3, 5] [%] | inhibition at 0.1 µM [4] [%] | Percentage inhibition of ligand binding, Adrenergic α1B ([1]; 0.1 µM) [%] | Percentage inhibition of ligand binding, Adrenergic α2B ([2]; 0.1 µM) | Percentage inhibition of ligand binding, Adrenergic α1D ([4]; 0.1 µM) [%] |
| --- | --- | --- | --- | --- | --- | --- | --- | --- | --- | --- |
| C/C(=C\n1c2c(c3cc(C)ccc31)CN(C)CC2)c1ccc(Cl)c(Cl)c1 [compound 243] | 58 | 105 | 3.86 | 73 | 98 | 90 | 45 | – | – | – |
| C/C(=C\n1c2c(c3cc(Cl)ccc31)CCN(C)CC2)c1cccnc1 [compound 244] | 78 | 99 | – | – | – | 76 | 42 | – | – | – |
| C/C(=C\n1c2c(c3cc(C)ccc31)CCN(C)CC2)c1cccnc1 [compound 245] | 69 | 96 | – | – | – | 65 | 35 | – | – | – |
| COc1ccc(/C(C)=C/n2c3c(c4cc(Cl)ccc42)CCN(C)CC3)cc1 [compound 246] | 82 | 101 | – | – | – | 86 | 68 | – | – | – |
| C/C(=C/n1c2c(c3cc(Cl)ccc31)CCN(C)CC2)c1cccc(F)c1 [compound 247] | 95 | 89 | – | – | – | 96 | 81 | – | – | – |
| C/C(=C\n1c2c(c3cc(Cl)ccc31)CCN(C)CC2)c1cccc(F)c1 [compound 248] | 76 | 95 | – | – | – | 90 | 31 | – | – | – |
| C/C(=C/n1c2c(c3cc(C)ccc31)CCN(C)CC2)c1cccc(F)c1 [compound 249] | 95 | 98 | – | – | – | 98 | 82 | – | – | – |
| C/C(=C\n1c2c(c3cc(C)ccc31)CN(C)CC2)c1cccnc1 [compound 250] | 37 | 105 | – | – | – | 62 | 22 | – | – | – |
| COc1ccc(/C(C)=C/n2c3c(c4cc(C)ccc42)CCN(C)CC3)cc1 [compound 251] | 89 | 101 | – | – | – | 85 | 53 | – | – | – |
| C/C(=C/n1c2c(c3cc(Cl)ccc31)CN(C)CC2)c1cc(F)c(F)cc1Cl [compound 252] | 36 | 52 | – | – | – | 66 | 13 | – | – | – |
| CN1CCc2c(c3cc(Cl)c(Cl)cc3n2CC(C)(O)c2ccncc2)C1 (stereo not shown) [compound 253] | 54 | – | – | – | 64 | 44 | 18 | 55 | 64% and 86% | 24 |
| Cc1ccc2c(c1)c1c(n2CC(C)c2ccncc2)CCN(C)C1 (stereo not shown) [compound 255] | 55 | 96 | – | – | – | 63 | 43 | – | – | – |
| Cc1ccc2c(c1)c1c(n2C#Cc2cccc(N(C)C)c2)CCN(C)C1 [compound 256] | 47 | 58 | – | – | – | 55 | 23 | – | – | – |
| C/C(=C\n1c2c(c3cc(Cl)ccc31)CN(C)C(C)C2)c1ccc(C)nc1 (stereo not shown) [compound 257] | 51 | 100 | – | – | – | 84 | 24 | – | – | – |
| C/C(=C/n1c2c(c3cc(C)ccc31)CN(C)CC2)c1ccc(F)cc1F [compound 258] | 93 | 99 | – | – | – | 94 | 74 | – | – | – |
| C/C(=C\n1c2c(c3cc(C)ccc31)CN(C)CC2)c1ccccn1 [compound 259] | 71 | 98 | – | – | – | 82 | 53 | – | – | – |
| Cc1ccc2c(c1)c1c(n2CC(C)(C)c2ccncc2)CCN(C)C1 [compound 260] | 45 | 92 | – | – | – | 54 | 26 | – | – | – |
| C/C(=C\n1c2c(c3cc(C)ccc31)CN(C)CC2)C1CCCCC1 [compound 261] | 50 | 84 | – | – | – | 84 | 30 | – | – | – |
| C/C=C(/c1ccccc1)n1c2c(c3cc(C)ccc31)CN(C)CC2 [compound 262] | 52 | 74 | – | – | – | 87 | 35 | – | – | – |
| Cc1ccc2c(c1)c1c(n2CC(O)(c2ccccc2)c2ccccc2)CCN(C)C1 [compound 263] | 1 | 54 | – | – | – | 61 | 6 | – | – | – |
| Cc1ccc2c(c1)c1c(n2C#Cc2ccncc2)CCN(C)C1 [compound 264] | 79 | 82 | – | – | – | 81 | 46 | – | – | – |
| C/C(=C\c1ccccc1)n1c2c(c3cc(C)ccc31)CN(C)CC2 [compound 265] | 50 | 70 | – | – | – | 67 | 30 | – | – | – |
| COc1ccc(/C(C)=C/n2c3c(c4cc(C)ccc42)CN(C)CC3)cn1 [compound 266] | 63 | 92 | – | – | – | 62 | 72 | – | – | – |
| Cc1ccc2c(c1)c1c(n2C=C(c2ccccc2)c2ccccc2)CCN(C)C1 [compound 267] | 7 | 85 | – | – | – | 63 | 26 | – | – | – |
| CSc1cccc(/C(C)=C/n2c3c(c4cc(C)ccc42)CN(C)CC3)c1 [compound 268] | 57 | 94 | – | – | – | 90 | 39 | – | – | – |
